Measurements reported in patent US20250092065A1, “2-(INDAZOL-5-YL)-6-(PIPERIDIN-4-YL)-1,7-NAPHTHYRIDINE DERIVATIVES AND RELATED COMPOUNDS AS MODULATORS FOR SPLICING NUCLEIC ACIDS AND FOR THE TREATMENT OF PROLIFERATIVE DISEASES” (REMIX THERAPEUTICS INC., priority 2022, published 2025).
pIC50: −log10 of the molar value. Where two headings read alike, the source gives them in different places.

What was measured:
HTT = assay: HiBiT protein abundance assay, HTT (K562 HiBiT knock-in); format: cell-based, human; details: HiBiT knock-in K562 cells, 24 hours, top dose 10 μM
Procedure, shortened: (§1)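 K562 HiBiT knock-in, 24 h, 37 °C, top 10 μM final, 3-fold ×10, DMSO ≤0.25%. Lytic HiBiT luminescence; PC = parental K562, NC = DMSO; 4PL IC50.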

MYB = assay: HiBiT protein abundance assay, MYB (K562 HiBiT knock-in); format: cell-based, human; details: HiBiT knock-in K562 cells, 24 hours, top dose 10 μM
Procedure, shortened: as §1

MYB mRNA = assay: RT-qPCR splicing assay, MYB mRNA canonical (CJ) and alternative (AJ) junction; format: cell-based, human; details: Homo sapiens; for AC50: MYB alternative junction mRNA, read-out: MYB AJ (increase in AJ mRNA, AC50)
Procedure, shortened: (§2)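 Both isoforms, CJ and AJ, read by qPCR from crude lysates of treated A673 or K562 cells; 24 h, 37 °C, maximum 10 uM. Normalization: housekeeper ΔCt, then DMSO ΔΔCt.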

HTT mRNA = assay: RT-qPCR splicing assay, HTT mRNA canonical (CJ) and alternative (AJ) junction; format: cell-based, human; details: Homo sapiens; for AC50: HTT alternative junction mRNA, read-out: HTT AJ (increase in AJ mRNA, AC50)
Procedure, shortened: as §2

K562 cells = assay: Cell Titer Glo 2.0 cell viability (toxicity) assay, K562; details: 500 cells/well, 72 hours
Target C = assay: HiBiT protein abundance assay, Target C (K562 HiBiT knock-in); format: cell-based, human; details: HiBiT knock-in K562 cells, 24 hours, top dose 10 μM
Procedure, shortened: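 K562 HiBiT knock-in cells (10000/well) were treated 24 h at 37° C with a 10-point 3-fold dilution series (top 10 μM final, ≤0.25% DMSO). HiBiT luminescence was read after lytic LgBiT detection. Percent response used unmodified K562 and DMSO-treated knock-in controls, and IC50 came from a four-parameter fit at 50% of untreated.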

SMN2 mRNA = assay: RT-qPCR splicing assay, SMN2 mRNA; format: cell-based, human; details: Homo sapiens, canonical junction qPCR panel, Table 4; read-out: SMN2 IC50 (decrease in CJ mRNA levels)
Procedure, shortened: as §2

[1] = MYB canonical junction mRNA, RT-qPCR, read-out: MYB CJ (decrease in CJ mRNA levels, IC50)
[2] = canonical junction qPCR panel, Table 4, read-out: MYB IC50 (decrease in CJ mRNA levels)
[3] = HTT canonical junction mRNA, RT-qPCR, read-out: HTT CJ (decrease in CJ mRNA levels, IC50)
[4] = canonical junction qPCR panel, Table 4, read-out: HTT IC50 (decrease in CJ mRNA levels)

SMILES | pIC50 (HTT) | pIC50 (MYB) | pIC50 (MYB mRNA; [1]) | pIC50 (MYB mRNA; [2]) | pIC50 (HTT mRNA; [3]) | pIC50 (HTT mRNA; [4]) | pIC50 (Target C) | pIC50 (SMN2 mRNA) | AC50 (MYB mRNA; RT-qPCR) [µM] | AC50 (HTT mRNA; RT-qPCR) [µM] | Effect of Exemplary Compounds on Cell Viability, K562 (K562 cells)
COc1cc2c(=O)n(C)cnc2cc1-c1ccc2nc(N3CCC(NC(C)(C)C)C3)ccc2n1 (stereo not drawn) [Compound 168] | < 5.00 | < 5.00 | < 5.00 | < 5.00 | < 5.00 | < 5.00 | < 5.00 | < 5.00 | > 10 | > 10 | D (D represents greater than 10 μM in K562 cells)
CN1CCC2(CC1)CCN2c1ccc2nc(-c3cc4cn(C)nc4cc3O)ccc2n1 [Compound 169] | 5.00 to 6.00 | 5.00 to 6.00 | < 5.00 | < 5.00 | < 5.00 | < 5.00 | < 5.00 | 5.00 to 6.00 | > 10 | > 10 | B (B represents 100-1000 nM)
CN[C@H]1CCN(c2ccc3nc(-c4cc5cn(C)nc5cc4O)ccc3n2)C1 [Compound 170] | > 7.00 | 6.00 to 7.00 | 6.00 to 7.00 | 6.00 to 7.00 | > 7.00 | > 7.00 | 6.00 to 7.00 | > 7.00 | 0.1 to 1 | 0.1 to 1 | B (B represents 100-1000 nM)
CN[C@@H]1CCN(c2ccc3nc(-c4cc5cn(C)nc5cc4O)ccc3n2)C1 [Compound 172] | > 7.00 | > 7.00 | > 7.00 | > 7.00 | > 7.00 | > 7.00 | 6.00 to 7.00 | > 7.00 | < 0.1 | 0.1 to 1 | B (B represents 100-1000 nM)
CC(C)N[C@@H]1CCN(c2ccc3nc(-c4cc5cn(C)nc5cc4O)ccc3n2)C1 [Compound 173] | > 7.00 | > 7.00 | > 7.00 | > 7.00 | > 7.00 | > 7.00 | > 7.00 | > 7.00 | < 0.1 | < 0.1 | A (A represents <100 nM)

Now from value to compound, other results behind:

pIC50 (HTT) | pIC50 (MYB) | pIC50 (MYB mRNA; [1]) | pIC50 (MYB mRNA; [2]) | pIC50 (HTT mRNA; [3]) | pIC50 (HTT mRNA; [4]) | pIC50 (Target C) | pIC50 (SMN2 mRNA) | SMILES | AC50 (MYB mRNA; RT-qPCR) [µM] | AC50 (HTT mRNA; RT-qPCR) [µM] | Effect of Exemplary Compounds on Cell Viability, K562 (K562 cells)
5.00 to 6.00 | 5.00 to 6.00 | 5.00 to 6.00 | 5.00 to 6.00 | 5.00 to 6.00 | 5.00 to 6.00 | 5.00 to 6.00 | 5.00 to 6.00 | Cn1cc2cc(-c3ccc4nc(N5CC(NC(C)(C)C)C5)ccc4n3)c(O)cc2n1 [Compound 165] | 1 to 10 | 1 to 10 | B (B represents 100-1000 nM)
< 5.00 | < 5.00 | < 5.00 | < 5.00 | < 5.00 | < 5.00 | 5.00 to 6.00 | < 5.00 | CC(C)(C)NC1CCN(c2ccc3nc(-c4cc5cnccc5cc4O)ccc3n2)C1 (stereo not drawn) [Compound 166] | > 10 | > 10 | B (B represents 100-1000 nM)
< 5.00 | < 5.00 | < 5.00 | < 5.00 | < 5.00 | < 5.00 | < 5.00 | < 5.00 | Cn1cnc2cc(-c3ccc4nc(N5CCC(NC(C)(C)C)C5)ccc4n3)c(O)cc2c1=O (stereo not drawn) [Compound 167] | > 10 | > 10 | B (B represents 100-1000 nM)
< 5.00 | < 5.00 | < 5.00 | < 5.00 | < 5.00 | < 5.00 | < 5.00 | < 5.00 | Cc1cc(=O)c2cc(O)c(-c3ccc4nc(N5CCC(NC(C)(C)C)C5)ccc4n3)cc2o1 (stereo not drawn) [Compound 174] | > 10 | > 10 | A (A represents <100 nM)
